Results from PubChem BioAssay AID256 (DTP/NCI, 2004).
Where “and” joins values, the source holds several entries; their conditions need not be identical. Identical values can stand only once. Toxic doses and inconclusive results are not listed. The calls were made as follows: active = survival T/C of 150% or more; inactive = T/C below 125% in these data.

Test system: CD2F1 mice, L1210 leukemia ip, survival T/C
Experiment: NCI In Vivo Anticancer Drug Screen. Data for tumor model L1210 Leukemia (intraperitoneal) in CD2F1 (CDF1) mice
Details: higher = longer survival
In short: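 Read-out first: treated-group measurement over vehicle-control measurement, expressed as a ratio. Animals bore a transplanted tumor line and were dosed with compound or vehicle.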

[1] = endpoint: mean survival time, dose: 100.0 mg/kg/injection, schedule: Q01DX009 (ip), vehicle: saline sonified
[2] = endpoint: mean survival time, dose: 100.0 mg/kg/injection, schedule: Q04DX003 (ip), vehicle: saline with Tween-80
[3] = endpoint: mean survival time, dose: 200.0 mg/kg/injection, schedule: Q01DX009 (ip), vehicle: saline sonified
[4] = endpoint: mean survival time, dose: 200.0 mg/kg/injection, schedule: Q04DX003 (ip), vehicle: saline with Tween-80
[5] = endpoint: mean survival time, dose: 400.0 mg/kg/injection, schedule: Q01DX009 (ip), vehicle: saline sonified
[6] = endpoint: mean survival time, dose: 400.0 mg/kg/injection, schedule: Q04DX003 (ip), vehicle: saline with Tween-80
[7] = endpoint: mean survival time, dose: 100.0 mg/kg/injection, schedule: Q01DX001 (ip), vehicle: saline with Tween-80
[8] = endpoint: mean survival time, dose: 200.0 mg/kg/injection, schedule: Q01DX001 (ip), vehicle: saline with Tween-80
[9] = endpoint: mean survival time, dose: 100.0 mg/kg/injection, schedule: Q01DX009 (ip), vehicle: saline with Tween-80
[10] = endpoint: mean survival time, dose: 200.0 mg/kg/injection, schedule: Q01DX009 (ip), vehicle: saline with Tween-80
[11] = endpoint: mean survival time, dose: 400.0 mg/kg/injection, schedule: Q01DX009 (ip), vehicle: saline with Tween-80

Measured: T/C

O=C1NC(=O)C2C3C=CC(C3)C12 (stereo unspecified)
inactive: endpoint: mean survival time, dose: 12.5 mg/kg/injection, schedule: Q04DX002 (ip), vehicle: saline with Tween-80 93 % of control | endpoint: mean survival time, dose: 25.0 mg/kg/injection, schedule: Q04DX002 (ip), vehicle: saline with Tween-80 93 % of control | endpoint: mean survival time, dose: 50.0 mg/kg/injection, schedule: Q04DX002 (ip), vehicle: saline with Tween-80 97 % of control | [1] 96 % of control | [2] 94 % of control | [3] 96 % of control | [4] 101 % of control | [5] 98 % of control | [6] 100 % of control

CC1CC(C)(C)N=C(C(Cc2ccccc2)Cc2ccccc2)O1 (stereo unspecified)
inactive: [7] 97 % of control | [8] 95 % of control

Cc1cc(C)c(O)c(C(=O)CC2CC(=O)NC(=O)C2)c1
inactive: [9] 100 % of control | [2] 95 % of control | [10] 105 % of control | [4] 97 % of control | [11] 101 % of control | [6] 95 % of control

CCCCCCCCCCCCCCNCCC(=O)O
inactive: endpoint: mean survival time, dose: 75.0 mg/kg/injection, schedule: Q01DX001 (ip), vehicle: saline 98 % of control | endpoint: mean survival time, dose: 150.0 mg/kg/injection, schedule: Q01DX001 (ip), vehicle: saline 106 % of control

COc1cc2c(oc(=O)c3cc(C)cc(OC)c32)c2c(C3OC(C)C(O)C(C)(O)C3O)ccc(O)c12 (stereo unspecified)
inactive: endpoint: median survival time, dose: 3.12 mg/kg/injection, schedule: Q01DX005 (ip), vehicle: DMSO 109 % of control and 110 % of control | endpoint: median survival time, dose: 6.25 mg/kg/injection, schedule: Q01DX005 (ip), vehicle: DMSO 108 % of control and 110 % of control | endpoint: median survival time, dose: 12.5 mg/kg/injection, schedule: Q01DX005 (ip), vehicle: DMSO 121 % of control and 103 % of control and 109 % of control | endpoint: median survival time, dose: 25.0 mg/kg/injection, schedule: Q01DX005 (ip), vehicle: DMSO 113 % of control and 118 % of control and 109 % of control | endpoint: median survival time, dose: 50.0 mg/kg/injection, schedule: Q01DX005 (ip), vehicle: DMSO 116 % of control and 112 % of control | endpoint: median survival time, dose: 100.0 mg/kg/injection, schedule: Q01DX005 (ip), vehicle: DMSO 121 % of control

O=S(=O)(O)O
inactive: [1] 100 % of control | [2] 96 % of control | [3] 97 % of control | [5] 97 % of control

CCCC1(CCC)NC(=O)NC1=O
inactive: endpoint: mean survival time, dose: 100.0 mg/kg/injection, schedule: Q04DX003 (ip), vehicle: other 102 % of control | endpoint: mean survival time, dose: 200.0 mg/kg/injection, schedule: Q04DX003 (ip), vehicle: other 102 % of control

Cc1ccc(S(=O)(=O)C2C=CC=CC=C2)cc1
inactive: endpoint: mean survival time, dose: 25.0 mg/kg/injection, schedule: Q01DX009 (ip), vehicle: saline with Tween-80 98 % of control | endpoint: mean survival time, dose: 50.0 mg/kg/injection, schedule: Q01DX009 (ip), vehicle: saline with Tween-80 98 % of control | [9] 94 % of control

COC1OC(C2N(c3ccccc3)CCN2c2ccccc2)=CC(OC(C)=O)C1OC(C)=O (stereo unspecified)
inactive: [2] 97 % of control | [4] 107 % of control | [6] 95 % of control

Cc1ccc(Sc2cccc3c2C(=O)c2c(Sc4ccc(C)cc4)cccc2C3=O)cc1
inactive: [9] 93 % of control | [10] 86 % of control

Cc1ccccc1/C1=C/CCCCCC1
inactive: endpoint: mean survival time, dose: 100.0 mg/kg/injection, schedule: Q01DX001 (ip), vehicle: saline sonified 107 % of control | [2] 102 % of control | endpoint: mean survival time, dose: 200.0 mg/kg/injection, schedule: Q01DX001 (ip), vehicle: saline sonified 94 % of control | [4] 104 % of control | endpoint: mean survival time, dose: 400.0 mg/kg/injection, schedule: Q01DX001 (ip), vehicle: saline sonified 89 % of control | [6] 93 % of control

CC[NH-].CC[NH-].[Cl][Pt+2][Cl]
inactive: endpoint: mean survival time, dose: 2.5 mg/kg/injection, schedule: Q04DX003 (ip), vehicle: water 115 % of control | endpoint: mean survival time, dose: 5.0 mg/kg/injection, schedule: Q04DX003 (ip), vehicle: water 116 % of control | endpoint: mean survival time, dose: 10.0 mg/kg/injection, schedule: Q04DX003 (ip), vehicle: water 112 % of control

Nc1ccc2cc(S(=O)(=O)O)cc(O)c2c1
inactive: [2] 98 % of control | [4] 102 % of control | [6] 98 % of control

C[N+]1(C)CCC(OC(=O)C(O)(c2ccccc2)C2CCCC2)C1 (stereo unspecified)
inactive: endpoint: mean survival time, dose: 3.13 mg/kg/injection, schedule: Q04DX003 (ip), vehicle: saline 87 % of control | endpoint: mean survival time, dose: 6.25 mg/kg/injection, schedule: Q04DX003 (ip), vehicle: saline 98 % of control | endpoint: mean survival time, dose: 12.5 mg/kg/injection, schedule: Q04DX003 (ip), vehicle: saline with Tween-80 100 % of control | endpoint: mean survival time, dose: 12.5 mg/kg/injection, schedule: Q04DX003 (ip), vehicle: saline 90 % of control | endpoint: mean survival time, dose: 25.0 mg/kg/injection, schedule: Q01DX001 (ip), vehicle: saline 104 % of control | endpoint: mean survival time, dose: 25.0 mg/kg/injection, schedule: Q04DX003 (ip), vehicle: saline with Tween-80 94 % of control | endpoint: mean survival time, dose: 25.0 mg/kg/injection, schedule: Q04DX003 (ip), vehicle: saline 103 % of control | endpoint: mean survival time, dose: 50.0 mg/kg/injection, schedule: Q01DX001 (ip), vehicle: saline 106 % of control | endpoint: mean survival time, dose: 50.0 mg/kg/injection, schedule: Q04DX003 (ip), vehicle: saline with Tween-80 103 % of control | endpoint: mean survival time, dose: 50.0 mg/kg/injection, schedule: Q04DX003 (ip), vehicle: saline 95 % of control | endpoint: mean survival time, dose: 100.0 mg/kg/injection, schedule: Q01DX001 (ip), vehicle: saline 102 % of control and 105 % of control | endpoint: mean survival time, dose: 100.0 mg/kg/injection, schedule: Q04DX002 (ip), vehicle: saline 97 % of control | [2] 108 % of control | endpoint: mean survival time, dose: 100.0 mg/kg/injection, schedule: Q04DX003 (ip), vehicle: saline 113 % of control and 88 % of control | endpoint: mean survival time, dose: 200.0 mg/kg/injection, schedule: Q04DX002 (ip), vehicle: saline 112 % of control | endpoint: mean survival time, dose: 400.0 mg/kg/injection, schedule: Q04DX002 (ip), vehicle: saline 104 % of control

Cc1ccc(S(=O)(=O)N2CCC(C(=O)O)(c3ccccc3)CC2)cc1
inactive: [2] 113 % of control | [4] 98 % of control | [6] 95 % of control

CC(C)CCCC(C)C1CCC2C3CCC4CC(=O)C=CC4(C)C3CCC12C (stereo unspecified)
inactive: endpoint: mean survival time, dose: 75.0 mg/kg/injection, schedule: Q04DX003 (sc), vehicle: steriod suspending solution 100 % of control | endpoint: mean survival time, dose: 150.0 mg/kg/injection, schedule: Q04DX003 (sc), vehicle: steriod suspending solution 101 % of control | endpoint: mean survival time, dose: 300.0 mg/kg/injection, schedule: Q04DX003 (sc), vehicle: steriod suspending solution 101 % of control

CN1COc2cc3c(cc2C1)OCN(C)C3
inactive: [7] 100 % of control | [8] 100 % of control

NC(=S)Nc1ccc(C(=O)O)cc1
inactive: [9] 96 % of control | [2] 93 % of control | [10] 100 % of control | [4] 94 % of control | [11] 86 % of control | [6] 90 % of control

COc1cc(NCCCCCCCNC(C)C)c2nccc(C)c2c1
inactive: endpoint: median survival time, dose: 3.12 mg/kg/injection, schedule: Q01DX009 (ip), vehicle: saline 98 % of control | endpoint: median survival time, dose: 6.25 mg/kg/injection, schedule: Q01DX009 (ip), vehicle: saline 102 % of control | endpoint: median survival time, dose: 12.5 mg/kg/injection, schedule: Q01DX009 (ip), vehicle: saline 97 % of control

[Cl][Pt+2][Cl].[NH-]c1ccccc1F.[NH-]c1ccccc1F
inactive: endpoint: mean survival time, dose: 15.63 mg/kg/injection, schedule: Q04DX003 (ip), vehicle: saline with Tween-80 112 % of control | endpoint: mean survival time, dose: 31.25 mg/kg/injection, schedule: Q04DX003 (ip), vehicle: saline with Tween-80 108 % of control | endpoint: mean survival time, dose: 62.5 mg/kg/injection, schedule: Q04DX003 (ip), vehicle: saline with Tween-80 115 % of control | endpoint: mean survival time, dose: 125.0 mg/kg/injection, schedule: Q04DX003 (ip), vehicle: saline with Tween-80 93 % of control

CNC1CCCCC1[N+](C)(C)C (stereo unspecified)
inactive: endpoint: mean survival time, dose: 5.0 mg/kg/injection, schedule: Q01DX009 (ip), vehicle: saline 98 % of control | endpoint: mean survival time, dose: 5.0 mg/kg/injection, schedule: Q04DX003 (ip), vehicle: saline 103 % of control | endpoint: mean survival time, dose: 10.0 mg/kg/injection, schedule: Q01DX009 (ip), vehicle: saline 101 % of control | endpoint: mean survival time, dose: 10.0 mg/kg/injection, schedule: Q04DX003 (ip), vehicle: saline 101 % of control | endpoint: mean survival time, dose: 20.0 mg/kg/injection, schedule: Q01DX009 (ip), vehicle: saline 96 % of control | endpoint: mean survival time, dose: 20.0 mg/kg/injection, schedule: Q04DX003 (ip), vehicle: saline 98 % of control

CCOC(=O)Nc1cc(N(C)C)c(N)c(N)n1
inactive: endpoint: mean survival time, dose: 100.0 mg/kg/injection, schedule: Q01DX001 (ip), vehicle: carboxymethylcellulose (CMC) 100 % of control | endpoint: mean survival time, dose: 200.0 mg/kg/injection, schedule: Q01DX001 (ip), vehicle: carboxymethylcellulose (CMC) 100 % of control
